{"source": "patent US20120010075A1", "about": "(priority 2009, published 2012)", "key": {"[1]": {"test_system": "Septoria tritici isolate USA-184", "experiment": "In vitro fungitoxicity of hydrazones with and without copper towards Septoria tritici (Example 30, Table 5)", "type": "cell-based", "conditions": "Zymoseptoria tritici, 0.05 μg/mL"}, "[2]": {"test_system": "Leptosphaeria nodorum (LEPTNO)", "experiment": "Fungitoxicity of copper-hydrazone mixtures of different ratios towards Leptosphaeria nodorum (Example 35, Table 11)", "type": "cell-based", "conditions": "Parastagonospora nodorum", "protocol": "In vitro fungitoxicity assays against LEPTNO were conducted using the copper-minus medium described in Example 26. Mixtures containing hydrazone compound 16 at 200 nM and CuCl2 at 0.2 μM (1:1 molar ratio), 0.8 μM (1:4 ratio), 12.5 μM (1:62.5 ratio) and 200 μM (1:1000 ratio) were prepared in copper-minus medium. Two-fold dilution series of these mixtures were then prepared in 100 μL aliquots of copper-minus medium in flat-bottomed 96-well microtiter plates. A suspension of LEPTNO spores in copper-minus medium at 2×10^5 spores per mL was prepared as in Example 26. Microtiter plates were inoculated with 100 μL of the spore suspension and the plates were incubated at 25° C. for 72 h before assessing fungal growth by measuring light scattering in a NepheloStar plate reader.\nGrowth inhibition was determined by comparing growth in the presence of copper-hydrazone mixture with growth in control wells lacking the copper-hydrazone mixture. EC50 values were calculated from dose-response curves, and are expressed as the amounts of hydrazone or copper in each test mixture at the rates providing 50% inhibition of growth as compared to a control lacking the copper-hydrazone mixture."}}, "note": "Like-named read-outs stand apart in the source and are kept apart here."}
{"smiles": "O=C(N/N=C/c1cc(Cl)cc(Cl)c1O)c1ccccc1", "note": "[Example 16]", "values": [{"measurement": "inhibition at 0.05 µg/mL", "setting": "[1]; Colby formula, CuCl2, read-out: % Inhibition Plus copper Predicted", "value": 35.8, "unit": "%"}, {"measurement": "inhibition at 0.05 µg/mL", "setting": "[1]; copper-minus medium, 90 h, read-out: % Inhibition Minus copper Observed", "value": 35.8, "unit": "%"}, {"measurement": "inhibition at 0.05 µg/mL", "setting": "[1]; copper-plus medium CuCl2, 90 h, read-out: % Inhibition Plus copper Observed", "value": 93.6, "unit": "%"}, {"measurement": "EC50", "setting": "[2]; Hydrazone without CuCl2, read-out: Hydrazone EC50", "value": "> 3200", "unit": "nM"}, {"measurement": "EC50", "setting": "[2]; Hydrazone:Cu ratio 1 to 1, read-out: Hydrazone EC50 (amount of hydrazone in mixture at EC50)", "value": 72.2, "unit": "nM"}, {"measurement": "EC50", "setting": "[2]; Hydrazone:Cu ratio 1 to 4, read-out: Hydrazone EC50 (amount of hydrazone in mixture at EC50)", "value": 43, "unit": "nM"}, {"measurement": "EC50", "setting": "[2]; Hydrazone:Cu ratio 1 to 62.5, read-out: Hydrazone EC50 (amount of hydrazone in mixture at EC50)", "value": 28.4, "unit": "nM"}, {"measurement": "EC50", "setting": "[2]; Hydrazone:Cu ratio 1 to 1000, read-out: Hydrazone EC50 (amount of hydrazone in mixture at EC50)", "value": 14, "unit": "nM"}]}
